For data set [1] the following is noted: subjects with insulin resistance, dosed daily with 20 mg/kg for 28 days; cited from earlier work.
The next data set has as its system rats. The data set is described as follows: acute toxicity studies in rats. It counts as in vivo, rat. As for the experimental part: (§1) Additional studies of D-pinitol's safety and efficacy included mutagenicity (AMES) tests, which were negative. […] In a phase I safety and pharmacokinetic study of D-pinitol in AD subjects, the time to peak plasma levels was about 90 minutes after administration, and the elimination half-life (t1/2) was 10 hours.

Data set [2] can be described thus: mutagenicity (AMES) tests. As to the method:
as §1

Data set [3] is described as follows: phase I safety and pharmacokinetic study in AD subjects. It counts as in vivo, human. As for the experimental part:
as §1

The nature of another data set: solubility in water. It counts as physicochemical. An excerpt:
In some embodiments, the D-pinitol can be a component of a dietary supplement or a medical food (e.g., in combination with an edible oil), or a food for special dietary use. Medical foods are, by definition, formulated to be consumed or administered enterally under the supervision of a physician or other medical professional. The manufacture of medical foods typically is done in compliance with FDA Good Manufacturing Practices (GMP) requirements. The term “food for special dietary use” is defined by 21 C.F.R. §105.3, as applied to food for humans, as meaning • particular (as distinguished from general) uses of food, as follows: • (i) Uses for supplying particular dietary needs which exist by reason of a physical, physiological, pathological or other condition, including but not limited to the conditions of diseases, convalescence, pregnancy, lactation, allergic hypersensitivity to food, underweight, and overweight; • (ii) Uses for supplying particular dietary needs which exist by reason of age, including but not limited to the ages of infancy and childhood; • (iii) Uses for supplementing or fortifying the ordinary or usual diet with any vitamin, mineral, or other dietary property. Any such particular use of a food is a special dietary use, regardless of whether such food also purports to be or is represented for general use. […]

Data on one molecule can be found in patent US20170102398A1, “PREDICTING AND REDUCING COGNITIVE DECLINE BASED ON GSK-3 LEVELS” (HUMANETICS CORPORATION, priority 2014, published 2017).

In general, LD50 refers to the dose at which mortality reaches 50%. A higher LD50 goes with a less toxic substance.

SMILES strings stand for the structures.

For `CO[C@H]1[C@H](O)[C@@H](O)[C@@H](O)[C@H](O)[C@@H]1O` [D-pinitol, 3-O-methyl-D-chiro-inositol], the “increase in plasma D-pinitol concentration as compared to baseline” value in data set [1] was 48 fold. The LD50 with rats was over 2000 mg/kg. For the same molecule, the “mutagenicity (AMES) tests” value in data set [2] is given as “negative”. The “elimination half-life (t1/2)” value in data set [3] amounted to 10 h. Also, the “time to peak plasma levels” value in data set [3] (after administration) is “about 90 minutes”. Besides, in “solubility in water”, the solubility in water entry was “soluble in water”.
